In this test the target is T1, cystathionine γ-lyase (CSE) (Homo sapiens, UniProt P32929).
T1 construct: gene CTH
In words: methylene blue H2S production assay with purified recombinant CSE, L-cysteine substrate. The format is biochemical.

T1 sequence (P32929 whole entry): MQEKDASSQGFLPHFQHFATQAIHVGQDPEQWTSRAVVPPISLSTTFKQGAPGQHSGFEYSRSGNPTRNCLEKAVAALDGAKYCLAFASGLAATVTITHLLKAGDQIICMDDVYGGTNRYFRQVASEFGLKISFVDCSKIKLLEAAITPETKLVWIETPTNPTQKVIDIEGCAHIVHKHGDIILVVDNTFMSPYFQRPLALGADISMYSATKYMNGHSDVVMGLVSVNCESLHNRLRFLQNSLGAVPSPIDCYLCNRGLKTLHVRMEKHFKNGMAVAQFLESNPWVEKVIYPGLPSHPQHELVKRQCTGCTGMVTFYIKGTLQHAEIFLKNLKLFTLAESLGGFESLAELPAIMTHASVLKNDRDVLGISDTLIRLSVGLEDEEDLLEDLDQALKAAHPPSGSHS

Consider `COc1ccc(-c2cc(C(F)F)n3ncc(C(=O)Nc4ccc(S(=O)(=O)Nc5ccccc5OC)cc4)c3n2)cc1` [I194496, 7-(difluoromethyl)-N-{4-[(2-methoxyanilino)sulfonyl]phenyl}-5-(4-methoxyphenyl)pyrazolo[1,5-a]pyrimidine-3-carboxamide], for which the concentration for half-maximal inhibition (IC50) turned out to be 790 µM.

By IC50 is commonly meant the concentration at which inhibition is half-maximal.

The record behind these values is article PMC8076300, “A novel cystathionine γ-lyase inhibitor, I194496, inhibits the growth and metastasis of human TNBC via downregulating multiple signaling pathways” (Scientific Reports, 2021).
